{"source": "paper PMC5218480", "about": "(PLoS ONE, 2017)", "test_system": "MV-4-11 cells", "test": "Gene expression microarray analysis (Affymetrix PrimeView) and GSEA", "type": "cell-based, human", "parameters": "RFU PODN (11730768_x_at) / Fold change /veh PODN (11730768_x_at) / RFU LINC00158 (11744669_a_at) / Fold change /veh LINC00158 (11744669_a_at) / RFU DUSP10 (11751237_a_at) / Fold change /veh DUSP10 (11751237_a_at) / RFU ID3 (11757404_x_at) / Fold change /veh ID3 (11757404_x_at) / RFU PLEKHG5 (11737974_s_at) / Fold change /veh PLEKHG5 (11737974_s_at) / RFU LRRC4B (11730491_at) / Fold change /veh LRRC4B (11730491_at) / RFU GIMAP4 (11747438_a_at) / Fold change /veh GIMAP4 (11747438_a_at) / RFU KRT8 (11758183_x_at) / Fold change /veh KRT8 (11758183_x_at) / RFU CNN1 (11734310_a_at) / Fold change /veh CNN1 (11734310_a_at) / RFU VPS37D (11726825_at) / Fold change /veh VPS37D (11726825_at) / RFU C10orf10 (11716522_x_at) / Fold change /veh C10orf10 (11716522_x_at) / RFU KIR2DL2 /// KIR2DL4 /// KIR2DL5A /// KIR2DL5B /// KIR2DS1 /// KIR2DS2 /// KIR2DS3 /// KIR2DS4 /// KIR3DL3 /// KIR3DL3 /// KIR3DS1 (11738374_at) / Fold change /veh KIR2DL2 /// KIR2DL4 /// KIR2DL5A /// KIR2DL5B /// KIR2DS1 /// KIR2DS2 /// KIR2DS3 /// KIR2DS4 /// KIR3DL3 /// KIR3DL3 /// KIR3DS1 (11738374_at) / RFU C1QL1 (11718748_at) / Fold change /veh C1QL1 (11718748_at) / RFU TMPRSS4 (11747572_a_at) / Fold change /veh TMPRSS4 (11747572_a_at) / RFU HAMP (11756126_x_at) / Fold change /veh HAMP (11756126_x_at) / RFU RNFT2 (11725882_a_at) / Fold change /veh RNFT2 (11725882_a_at) / RFU NR4A2 (11747474_a_at) / Fold change /veh NR4A2 (11747474_a_at) / RFU ABCC12 (11746883_a_at) / Fold change /veh ABCC12 (11746883_a_at) / RFU TMEM136 (11760407_x_at) / Fold change /veh TMEM136 (11760407_x_at) / RFU CLDN22 /// WWC2 (11732394_at) / Fold change /veh CLDN22 /// WWC2 (11732394_at) / RFU HLA-DPB1 (11760878_x_at) / Fold change /veh HLA-DPB1 (11760878_x_at) / RFU SPINT1 (11716480_a_at) / Fold change /veh SPINT1 (11716480_a_at) / RFU GAP43 (11754022_s_at) / Fold change /veh GAP43 (11754022_s_at) / RFU A4GNT (11735810_at) / Fold change /veh A4GNT (11735810_at) / RFU PRB3 (11715151_x_at) / Fold change /veh PRB3 (11715151_x_at) / RFU TUBB4B (11761932_at) / Fold change /veh TUBB4B (11761932_at) / RFU CAPN14 (11732068_a_at) / Fold change /veh CAPN14 (11732068_a_at) / RFU TMCC2 (11721928_a_at) / Fold change /veh TMCC2 (11721928_a_at) / RFU IRGQ (11745062_a_at) / Fold change /veh IRGQ (11745062_a_at) / RFU FAM174B (11720279_a_at) / Fold change /veh FAM174B (11720279_a_at) / RFU TMPRSS4 (11748680_a_at) / Fold change /veh TMPRSS4 (11748680_a_at) / RFU FAM212B (11763350_a_at) / Fold change /veh FAM212B (11763350_a_at) / RFU PLEKHG5 (11743358_a_at) / Fold change /veh PLEKHG5 (11743358_a_at) / RFU ZSCAN30 (11745921_a_at) / Fold change /veh ZSCAN30 (11745921_a_at) / RFU CMKLR1 (11741424_a_at) / Fold change /veh CMKLR1 (11741424_a_at) / RFU LOC101060620 /// MAPK8IP1 (11723275_at) / Fold change /veh LOC101060620 /// MAPK8IP1 (11723275_at) / RFU SPTSSB (11747773_x_at) / Fold change /veh SPTSSB (11747773_x_at) / RFU PRSS12 (11739890_at) / Fold change /veh PRSS12 (11739890_at) / RFU BIN1 (11741810_x_at) / Fold change /veh BIN1 (11741810_x_at) / RFU WNT11 (11732464_a_at) / Fold change /veh WNT11 (11732464_a_at) / RFU C10orf10 (11716521_a_at) / Fold change /veh C10orf10 (11716521_a_at) / RFU C5orf56 (11738089_at) / Fold change /veh C5orf56 (11738089_at) / RFU CYB561 (11721691_x_at) / Fold change /veh CYB561 (11721691_x_at) / RFU ANKRD19P (11752326_a_at) / Fold change /veh ANKRD19P (11752326_a_at) / RFU OR2T12 /// OR2T33 /// OR2T8 (11738714_s_at) / Fold change /veh OR2T12 /// OR2T33 /// OR2T8 (11738714_s_at) / RFU VCAN (11748164_a_at) / Fold change /veh VCAN (11748164_a_at) / RFU JSRP1 (11732532_at) / Fold change /veh JSRP1 (11732532_at) / RFU KRTAP10-11 (11738290_x_at) / Fold change /veh KRTAP10-11 (11738290_x_at) / RFU MYO3A (11730013_a_at) / Fold change /veh MYO3A (11730013_a_at) / RFU EBF3 (11725865_a_at) / Fold change /veh EBF3 (11725865_a_at) / RFU CAMK2N1 (11719241_x_at) / Fold change /veh CAMK2N1 (11719241_x_at) / RFU C5orf56 (11738088_a_at) / Fold change /veh C5orf56 (11738088_a_at) / RFU OLFML3 (11715873_a_at) / Fold change /veh OLFML3 (11715873_a_at) / RFU LOC100653217 /// NTM (11731650_a_at) / Fold change /veh LOC100653217 /// NTM (11731650_a_at) / RFU MAPK11 (11762145_a_at) / Fold change /veh MAPK11 (11762145_a_at) / RFU FIZ1 (11724087_x_at) / Fold change /veh FIZ1 (11724087_x_at) / RFU OASL (11726364_x_at) / Fold change /veh OASL (11726364_x_at) / RFU SOX15 (11748057_x_at) / Fold change /veh SOX15 (11748057_x_at) / RFU CD79A (11719716_a_at) / Fold change /veh CD79A (11719716_a_at) / RFU HIST1H1D (11736915_at) / Fold change /veh HIST1H1D (11736915_at) / RFU CASKIN2 (11723855_a_at) / Fold change /veh CASKIN2 (11723855_a_at) / RFU LOC730098 (11760151_x_at) / Fold change /veh LOC730098 (11760151_x_at) / RFU OR4N2 (11742367_at) / Fold change /veh OR4N2 (11742367_at) / RFU PRRT2 (11749266_a_at) / Fold change /veh PRRT2 (11749266_a_at) / RFU SNX32 (11753110_a_at) / Fold change /veh SNX32 (11753110_a_at) / RFU CDHR5 (11726645_a_at) / Fold change /veh CDHR5 (11726645_a_at) / RFU RCAN1 (11760418_a_at) / Fold change /veh RCAN1 (11760418_a_at) / RFU FAM167A (11723789_a_at) / Fold change /veh FAM167A (11723789_a_at) / RFU FAM26E (11764081_at) / Fold change /veh FAM26E (11764081_at) / RFU ISYNA1 (11749810_s_at) / Fold change /veh ISYNA1 (11749810_s_at) / RFU ACY1 (11761880_at) / Fold change /veh ACY1 (11761880_at) / RFU 11764098_at / Fold change /veh 11764098_at / RFU SAMD14 (11745864_x_at) / Fold change /veh SAMD14 (11745864_x_at) / RFU NPB (11741838_a_at) / Fold change /veh NPB (11741838_a_at) / RFU TMPRSS6 (11731388_a_at) / Fold change /veh TMPRSS6 (11731388_a_at) / RFU KRTAP10-2 (11738614_at) / Fold change /veh KRTAP10-2 (11738614_at) / RFU ARHGAP8 /// PRR5-ARHGAP8 (11727945_x_at) / Fold change /veh ARHGAP8 /// PRR5-ARHGAP8 (11727945_x_at) / RFU KRTAP5-7 /// NADSYN1 (11734609_at) / Fold change /veh KRTAP5-7 /// NADSYN1 (11734609_at) / RFU RASL12 (11751679_a_at) / Fold change /veh RASL12 (11751679_a_at) / RFU CDKN2B (11736163_a_at) / Fold change /veh CDKN2B (11736163_a_at) / RFU PRF1 (11729649_at) / Fold change /veh PRF1 (11729649_at) / RFU, ZNF638 /// ZNF638-IT1 / Fold change vs veh, ZNF638 /// ZNF638-IT1 / RFU, PANK3 / Fold change vs veh, PANK3 / RFU, SH3YL1 / Fold change vs veh, SH3YL1 / RFU, ZEB2 / Fold change vs veh, ZEB2 / RFU, NRIP1 / Fold change vs veh, NRIP1 / RFU, PTTG1IP / Fold change vs veh, PTTG1IP / RFU, CAPN2 / Fold change vs veh, CAPN2 / RFU, MED14 / Fold change vs veh, MED14 / RFU, SNORA58 / Fold change vs veh, SNORA58 / RFU, C1orf63 / Fold change vs veh, C1orf63 / RFU, LRRFIP1 / Fold change vs veh, LRRFIP1 / RFU, NDUFAF7 / Fold change vs veh, NDUFAF7 / RFU, SLC12A2 / Fold change vs veh, SLC12A2 / RFU, IBTK / Fold change vs veh, IBTK / RFU, ESF1 / Fold change vs veh, ESF1 / Fold change vs veh, TMEM50B / RFU, TAOK1 / Fold change vs veh, TAOK1 / RFU, ACBD3 / Fold change vs veh, ACBD3 / RFU, TMA16 / Fold change vs veh, TMA16 / RFU, RWDD3 / Fold change vs veh, RWDD3 / RFU, BCAT1 / Fold change vs veh, BCAT1 / RFU, EDEM3 / Fold change vs veh, EDEM3 / RFU, TMEM33 / Fold change vs veh, TMEM33 / RFU, WDR75 / Fold change vs veh, WDR75 / RFU, AHCTF1 / Fold change vs veh, AHCTF1 / RFU, TFRC / Fold change vs veh, TFRC / RFU, ZDHHC17 / Fold change vs veh, ZDHHC17 / RFU, NOM1 / Fold change vs veh, NOM1 / RFU, ARL8B / Fold change vs veh, ARL8B / RFU, ZBTB11 / Fold change vs veh, ZBTB11 / RFU, TAMM41 / Fold change vs veh, TAMM41 / RFU, KIAA1704 /// LOC100996395 / Fold change vs veh, KIAA1704 /// LOC100996395 / RFU, ING1 / Fold change vs veh, ING1 / RFU, TRMT61B / Fold change vs veh, TRMT61B / RFU, FUBP3 / Fold change vs veh, FUBP3 / RFU, TP53 / Fold change vs veh, TP53 / RFU, TNKS2 / Fold change vs veh, TNKS2 / RFU, ZFP14 / Fold change vs veh, ZFP14 / RFU, ACTR2 / Fold change vs veh, ACTR2 / RFU, PPP3R1 / Fold change vs veh, PPP3R1 / RFU, PIK3R1 / Fold change vs veh, PIK3R1 / RFU, HNRNPA1 / Fold change vs veh, HNRNPA1 / RFU, RNF170 / Fold change vs veh, RNF170 / RFU, ZNF28 / Fold change vs veh, ZNF28 / RFU, RNGTT / Fold change vs veh, RNGTT / RFU, OGT / Fold change vs veh, OGT / RFU, BRD1 / Fold change vs veh, BRD1 / RFU, MARS / Fold change vs veh, MARS / RFU, ZNF655 / Fold change vs veh, ZNF655 / RFU, FAHD1 / Fold change vs veh, FAHD1 / RFU, BDP1 / Fold change vs veh, BDP1 / RFU, LRRCC1 / Fold change vs veh, LRRCC1 / RFU, ARID1A / Fold change vs veh, ARID1A / RFU, ZNF146 / Fold change vs veh, ZNF146 / RFU, ZNF330 / Fold change vs veh, ZNF330 / RFU, GPN3 / Fold change vs veh, GPN3 / RFU, C9orf123 / Fold change vs veh, C9orf123 / RFU, N4BP2L2 / Fold change vs veh, N4BP2L2 / RFU, ARFIP1 / Fold change vs veh, ARFIP1 / RFU, FAM179B / Fold change vs veh, FAM179B / RFU, BCL10 / Fold change vs veh, BCL10 / RFU, UHRF1BP1L / Fold change vs veh, UHRF1BP1L / RFU, BET1 / Fold change vs veh, BET1 / RFU, CNOT2 / Fold change vs veh, CNOT2 / RFU, ZNF268 / Fold change vs veh, ZNF268 / Fold change vs veh, ZNF507 / RFU, DGCR2 / Fold change vs veh, DGCR2 / RFU, WDSUB1 / Fold change vs veh, WDSUB1 / Fold change vs veh, HSP90B1 /// MIR3652 / RFU, ADSS / Fold change vs veh, ADSS / RFU, GK / Fold change vs veh, GK / RFU, ZNF148 / Fold change vs veh, ZNF148 / RFU, TAF9 / Fold change vs veh, TAF9 / RFU, SLC1A5 / Fold change vs veh, SLC1A5 / RFU, SLMO2 / Fold change vs veh, SLMO2 / RFU, ABCC4 / Fold change vs veh, ABCC4 / RFU, LOC101060439 /// RAP1B / Fold change vs veh, LOC101060439 /// RAP1B / RFU, RFX7 / Fold change vs veh, RFX7 / RFU, GTPBP10 / Fold change vs veh, GTPBP10 / RFU, CNEP1R1 / Fold change vs veh, CNEP1R1 / RFU, BIVM-ERCC5 /// ERCC5 / Fold change vs veh, BIVM-ERCC5 /// ERCC5 / RFU, ILF3 / Fold change vs veh, ILF3 / RFU 11762660_at / Fold change /veh 11762660_at / RFU VCAN (11757783_s_at) / Fold change /veh VCAN (11757783_s_at) / RFU DDX43 (11728927_at) / Fold change /veh DDX43 (11728927_at) / RFU KRT8 (11758188_x_at) / Fold change /veh KRT8 (11758188_x_at) / RFU NKD1 (11759106_at) / Fold change /veh NKD1 (11759106_at) / RFU SRD5A1 (11742802_a_at) / Fold change /veh SRD5A1 (11742802_a_at) / RFU TPSAB1 /// TPSB2 (11721975_s_at) / Fold change /veh TPSAB1 /// TPSB2 (11721975_s_at) / RFU GSTM3 (11746129_a_at) / Fold change /veh GSTM3 (11746129_a_at) / RFU IL23R (11737362_x_at) / Fold change /veh IL23R (11737362_x_at) / RFU TMEM51 (11727254_a_at) / Fold change /veh TMEM51 (11727254_a_at) / RFU PIWIL2 (11732686_x_at) / Fold change /veh PIWIL2 (11732686_x_at) / RFU ORM1 (11744905_x_at) / Fold change /veh ORM1 (11744905_x_at) / RFU CCDC152 (11743942_at) / Fold change /veh CCDC152 (11743942_at) / RFU ECM1 (11717891_a_at) / Fold change /veh ECM1 (11717891_a_at) / RFU IL23R (11748794_a_at) / Fold change /veh IL23R (11748794_a_at) / RFU TNFAIP8L3 (11732012_x_at) / Fold change /veh TNFAIP8L3 (11732012_x_at) / RFU MBOAT4 (11741988_at) / Fold change /veh MBOAT4 (11741988_at) / RFU 11764193_at / Fold change /veh 11764193_at / RFU TMEM53 (11763286_at) / Fold change /veh TMEM53 (11763286_at) / RFU MAGEB2 (11727129_at) / Fold change /veh MAGEB2 (11727129_at) / RFU TMEM200A (11744735_a_at) / Fold change /veh TMEM200A (11744735_a_at) / RFU CCDC152 (11751479_a_at) / Fold change /veh CCDC152 (11751479_a_at) / RFU FAM211A (11726209_a_at) / Fold change /veh FAM211A (11726209_a_at) / RFU RGS16 (11746705_a_at) / Fold change /veh RGS16 (11746705_a_at) / RFU VCAN (11755009_s_at) / Fold change /veh VCAN (11755009_s_at) / RFU RHOB (11743442_s_at) / Fold change /veh RHOB (11743442_s_at) / RFU RGS16 (11720943_a_at) / Fold change /veh RGS16 (11720943_a_at) / RFU RGS16 (11720944_at) / Fold change /veh RGS16 (11720944_at) / RFU, VPS4B / Fold change vs veh, VPS4B / RFU, CREB1 / Fold change vs veh, CREB1 / RFU, DNAJC13 / Fold change vs veh, DNAJC13 / RFU, GNAQ / Fold change vs veh, GNAQ / RFU, CDK5R1 / Fold change vs veh, CDK5R1 / RFU, ZRANB3 / Fold change vs veh, ZRANB3 / RFU, CUL4A / Fold change vs veh, CUL4A / RFU, CCNY / Fold change vs veh, CCNY / RFU, UFL1 / Fold change vs veh, UFL1 / RFU, COG3 / Fold change vs veh, COG3 / RFU, DIAPH2 / Fold change vs veh, DIAPH2 / RFU, SKA2 / Fold change vs veh, SKA2 / RFU, AFF3 / Fold change vs veh, AFF3 / RFU, LMF1 / Fold change vs veh, LMF1 / RFU, IPO11 / Fold change vs veh, IPO11 / RFU, DFFB / Fold change vs veh, DFFB / RFU, FOXP1 / Fold change vs veh, FOXP1 / RFU, CARD8 / Fold change vs veh, CARD8 / RFU, STRN3 / Fold change vs veh, STRN3 / RFU, ADK / Fold change vs veh, ADK / RFU, RASSF2 / Fold change vs veh, RASSF2 / RFU, WIPF1 / Fold change vs veh, WIPF1 / RFU, LARP1B / Fold change vs veh, LARP1B / RFU, RASA1 / Fold change vs veh, RASA1 / RFU, RB1 / Fold change vs veh, RB1 / RFU, PPFIA1 / Fold change vs veh, PPFIA1 / RFU, MAT2A / Fold change vs veh, MAT2A / RFU, CCT5 / Fold change vs veh, CCT5 / RFU, WDR92 / Fold change vs veh, WDR92 / RFU, CUX1 / Fold change vs veh, CUX1 / RFU, TTC7A / Fold change vs veh, TTC7A / RFU, TMEM135 / Fold change vs veh, TMEM135 / RFU, DEPTOR / Fold change vs veh, DEPTOR / RFU, CPM / Fold change vs veh, CPM / RFU, DNAJB6 / Fold change vs veh, DNAJB6 / RFU, CACNA2D3 / Fold change vs veh, CACNA2D3 / RFU, DTX4 / Fold change vs veh, DTX4 / RFU, TFCP2 / Fold change vs veh, TFCP2 / RFU, GMCL1 /// GMCL1P1 / Fold change vs veh, GMCL1 /// GMCL1P1 / RFU, AEBP2 / Fold change vs veh, AEBP2 / RFU, SNHG1 /// SNORD22 /// SNORD25 /// SNORD26 /// SNORD27 /// SNORD28 /// SNORD29 /// SNORD31 / Fold change vs veh, SNHG1 /// SNORD22 /// SNORD25 /// SNORD26 /// SNORD27 /// SNORD28 /// SNORD29 /// SNORD31 / Fold change (Aza/veh), C12orf56 (ProbeSet 11735607_a_at) / Fold change (ACY-1035/veh), C12orf56 (ProbeSet 11735607_a_at) / Fold change (Aza/veh), FGFR1OP (ProbeSet 11751329_s_at) / Fold change (ACY-1035/veh), FGFR1OP (ProbeSet 11751329_s_at) / Fold change (Aza/veh), VPS36 (ProbeSet 11739960_a_at) / Fold change (ACY-1035/veh), VPS36 (ProbeSet 11739960_a_at) / RFU SYPL1 (11715823_x_at) / Fold change /veh SYPL1 (11715823_x_at) / RFU IGFBP7 (11715501_s_at) / Fold change /veh IGFBP7 (11715501_s_at) / RFU REEP3 (11722064_at) / Fold change /veh REEP3 (11722064_at) / RFU IGLL1 (11728026_x_at) / Fold change /veh IGLL1 (11728026_x_at): dose or concentration left out as unconfirmed", "conditions": "ProbeSet 11759095_at; LIST D", "data": [{"smiles": "Nc1ccc(-c2cccs2)cc1NC(=O)c1ccc2c(c1)cc(C1CC1)n2CCN1CCOCC1", "note": "[ACY-1035]", "values": [{"measurement": "RFU, GNAQ", "result": 901.39, "unit": "RFU"}]}]}
